Experiment: xn = mol fraction of the nth substance listed
Settings: 101 kPa

CN(CCO)CCO + CCCCCC[n+]1ccn(C)c1.O=S(=O)([N-]S(=O)(=O)C(F)(F)F)C(F)(F)F
x1 = 1
Settings | viscosity [mPa·s]
308.15 K | 46.2
323.15 K | 24.7

CCCCCC[n+]1ccn(C)c1.O=S(=O)([N-]S(=O)(=O)C(F)(F)F)C(F)(F)F + CN(CCO)CCO
viscosity [mPa·s]
Settings | x2 = 0 | x2 = 0.0989 | x2 = 0.1899 | x2 = 0.2977 | x2 = 0.3999 | x2 = 0.4988 | x2 = 0.6075 | x2 = 0.7049 | x2 = 0.801 | x2 = 0.899
303.15 K | – | 52.4 | 46.6 | 40.8 | 37 | 35.1 | 39 | 44.3 | – | 55.1
308.15 K | 50.4 | – | 42.1 | 38 | – | 31.3 | 33.7 | 37.4 | 40.8 | 43.7
313.15 K | 41.4 | 39.2 | 36.7 | 34 | – | 29.8 | – | 31.8 | 34.3 | –
318.15 K | 35 | 33.1 | 30.8 | 27.9 | 25.4 | 23.9 | 23.8 | – | 27.3 | 28.9
323.15 K | 28.8 | 27.7 | 26 | – | 22.8 | 22.1 | 22.4 | – | 23.7 | 24.4

From a compilation of properties of binary mixtures (doi:10.1016/j.molliq.2012.02.014)
